Reference: PubChem BioAssay AID1259408 (Genetic Toxicology Data Bank (GENE-TOX), 2018)
Activity calls are given as the source filed them. How the calls were made is not given here.

Tested on: GENE-TOX genotoxicity assays, various organisms and cells
Assay: GENE-TOX mutagenicity studies
Conditions: for call: Assay Type: In vivo carcinogenicity studies
[1] = Species/Cell Type: Human lymphocytes, Assay Type: Sister-chromatid exchange (SCE) in vitro, Assay Code: SCLT, Evaluation Type: Evaluation B (Post-1980)
[2] = Species/Cell Type: Human, Assay Type: Sister-chromatid exchange (SCE) in vitro, Assay Code: SC1T, Evaluation Type: Evaluation B (Post-1980)
[3] = Species/Cell Type: Nonhuman, Assay Type: Sister-chromatid exchange (SCE) in vitro, Assay Code: SC2+D, Dose Response: With dose response, Evaluation Type: Evaluation B (Post-1980)
[4] = Species/Cell Type: Salmonella typhimurium (one or more of the five standard strains: TA98, TA100, TA1535, TA1537, and TA1538), Assay Type: Histidine reverse gene mutation, Ames assay, Assay Code: SALT, Evaluation Type: Evaluation A (Pre-1980)
[5] = Species/Cell Type: Drosophila melanogaster, Assay Type: Sex-linked recessive lethal gene mutation, Assay Code: SRLT, Evaluation Type: Evaluation A (Pre-1980)
[6] = Species/Cell Type: Drosophila melanogaster, Sex: Male, Assay Type: Heritable translocation test, chromosome aberrations, Assay Code: DHTT, Evaluation Type: Evaluation A (Pre-1980)
[7] = Species/Cell Type: Neurospora crassa, Assay Type: Reverse gene mutation, Assay Code: NER+, Evaluation Type: Evaluation A (Pre-1980)
[8] = Species/Cell Type: Mammalian polychromatic erythrocytes, Assay Type: Micronucleus test, chromosome aberrations, Assay Code: MNT+, Evaluation Type: Evaluation B (Post-1980)
[9] = Species/Cell Type: Salmonella typhimurium (one or more of the five standard strains: TA98, TA100, TA1535, TA1537, and TA1538), Assay Type: Histidine reverse gene mutation, Ames assay, Assay Code: SAL+, Evaluation Type: Evaluation A (Pre-1980)
[10] = Species/Cell Type: Chinese hamster lung (V79) cells, Assay Type: Forward gene mutation at the HPRT or ouabain locus, Assay Code: V79-, Evaluation Type: Evaluation A (Pre-1980)
[11] = Species/Cell Type: Nonhuman, Assay Code: CCGT, Evaluation Type: Evaluation A (Pre-1980)
[12] = Species/Cell Type: Nonhuman, Assay Code: CCG+L, Evaluation Type: Evaluation A (Pre-1980)
[13] = Species/Cell Type: Salmonella typhimurium (one or more of the five standard strains: TA98, TA100, TA1535, TA1537, and TA1538), Assay Type: Histidine reverse gene mutation, Ames assay, Assay Code: SAL+*, Activation: With metabolic activation, Evaluation Type: Evaluation A (Pre-1980)
[14] = Species/Cell Type: Allium cepa, Assay Type: Chromosome aberrations, Assay Code: ALC+D, Dose Response: With dose response, Evaluation Type: Evaluation A (Pre-1980)
[15] = Species/Cell Type: Chinese hamster lung (V79) cells, Assay Type: Forward gene mutation at the HPRT or ouabain locus, Assay Code: V79-*, Activation: With metabolic activation, Evaluation Type: Evaluation A (Pre-1980)

In the case of O=C1O[C@H]([C@@H](O)CO)C(O)=C1O, the mutagenic call (Species/Cell Type: Human lymphocytes, Assay Type: Sister-chromatid exchange (SCE) in vitro, Assay Code: SCL+, Evaluation Type: Evaluation A (Pre-1980)) is reported as “active; positive”, the mutagenic call [1] is reported as “no conclusion” and the mutagenic call (Species/Cell Type: Human, Assay Type: Sister-chromatid exchange (SCE) in vitro, Assay Code: SC1+, Evaluation Type: Evaluation A (Pre-1980)) is reported as “active; positive”. For the same compound, the mutagenic call [2] was “no conclusion”, the mutagenic call (Species/Cell Type: Mammalian polychromatic erythrocytes, Assay Type: Micronucleus test, chromosome aberrations, Assay Code: MNTT, Evaluation Type: Evaluation A (Pre-1980)) was “no conclusion” and the mutagenic call (Species/Cell Type: Mouse, Sex: Male, Assay Type: Sperm morphology, Assay Code: SPI-, Evaluation Type: Evaluation A (Pre-1980)) was “inactive; negative”. The mutagenic call (Species/Cell Type: Nonhuman, Assay Type: Sister-chromatid exchange (SCE) in vitro, Assay Code: SC2+, Evaluation Type: Evaluation A (Pre-1980)) was “active; positive”, the mutagenic call [3] was “active; positive” and the mutagenic call (Species/Cell Type: Nonhuman, Assay Type: Sister-chromatid exchange (SCE) in vivo, Assay Code: SC3T, Evaluation Type: Evaluation B (Post-1980)) was “no conclusion”. The mutagenic call [4] was “no conclusion”.

CON was tested, and the mutagenic call [5] was “no conclusion”, the mutagenic call [6] was “no conclusion” and the mutagenic call [7] was “active; positive”. For the same compound, the mutagenic call (Species/Cell Type: Saccharomyces cerevisiae, Assay Type: Mitotic recombination or gene conversion, Assay Code: YEH+, Evaluation Type: Evaluation A (Pre-1980)) was “active; positive”.

With Clc1ccc(Cl)cc1 the mutagenic call (Species/Cell Type: Allium cepa, Assay Type: Chromosome aberrations, Assay Code: ALC+, Evaluation Type: Evaluation A (Pre-1980)) was “active; positive” and the mutagenic call [8] was “active; positive”.

In the case of CCOS(=O)(=O)CCl, the mutagenic call (Species/Cell Type: Schizosaccharomyces pombe, Assay Type: Reverse gene mutation, Assay Code: YEZ+, Evaluation Type: Evaluation A (Pre-1980)) is reported as “active; positive”.

In the case of CCCN(CCCC(=O)O)N=O, the mutagenic call [9] is reported as “active; positive”.

For c1ccc2c(c1)[nH]c1cnccc12, the mutagenic call (Species/Cell Type: Human lymphocytes, Assay Type: Sister-chromatid exchange (SCE) in vitro, Assay Code: SCL+D, Dose Response: With dose response, Evaluation Type: Evaluation B (Post-1980)) was “active; positive”, the mutagenic call [1] was “no conclusion” and the mutagenic call (Species/Cell Type: Human, Assay Type: Sister-chromatid exchange (SCE) in vitro, Assay Code: SC1+D, Dose Response: With dose response, Evaluation Type: Evaluation B (Post-1980)) was “active; positive”. For the same compound, the mutagenic call [2] was “no conclusion”.

In the case of [Cl][Bi]([Cl])[Cl], the mutagenic call (Species/Cell Type: Bacillus subtilis (H17 vs M45), Assay Type: Rec-assay, spot test, DNA effects (bacterial DNA repair), Assay Code: REW-, Evaluation Type: Evaluation A (Pre-1980)) is reported as “inactive; negative”.

For CC1OC1C (stereo not drawn), the mutagenic call [7] was “active; positive”.

With Oc1cc2cc3ccccc3c3ccc4cccc1c4c23 the mutagenic call [10] was “inactive; negative”, the call [11] was “no conclusion” and the mutagenic call (Species/Cell Type: Nonhuman, Assay Type: Sister-chromatid exchange (SCE) in vitro, Assay Code: SC2+, Evaluation Type: Evaluation B (Post-1980)) was “active; positive”. The mutagenic call [4] was “no conclusion”.

O[C@@H]1C=Cc2cc3ccc4cccc5ccc(c2[C@@H]1O)c3c45 was tested, and the mutagenic call [10] was “inactive; negative” and the mutagenic call [4] was “no conclusion”.

In the case of CN(N=O)C(=O)Oc1cccc2ccccc12, the mutagenic call (Species/Cell Type: Bacillus subtilis (H17 vs M45T), Assay Type: Rec-assay, spot test, DNA effects (bacterial DNA repair), Assay Code: REX+, Evaluation Type: Evaluation A (Pre-1980)) is reported as “active; positive”, the mutagenic call (Species/Cell Type: Escherichia coli WP2, Assay Type: Tryptophan reverse gene mutation, Assay Code: WP2+, Evaluation Type: Evaluation A (Pre-1980)) is reported as “active; positive” and the mutagenic call [3] is reported as “active; positive”. The mutagenic call (Species/Cell Type: Saccharomyces cerevisiae, Assay Type: Mitotic recombination or gene conversion, Assay Code: YEC+, Evaluation Type: Evaluation A (Pre-1980)) was “active; positive” and the mutagenic call [9] was “active; positive”.

With CN1CCN(CCCN2c3ccccc3Sc3ccccc32)CC1 the mutagenic call [1] was “no conclusion” and the mutagenic call [2] was “no conclusion”.

In the case of COP(=S)(OC)Oc1cc(Cl)c(Br)cc1Cl, the mutagenic call [5] is reported as “no conclusion”.

With CC(C)C(=O)Nc1ccc([N+](=O)[O-])c(C(F)(F)F)c1 the mutagenic call (Species/Cell Type: Rodents, Sex: Male, Assay Type: Dominant lethal test, Assay Code: DLT-, Evaluation Type: Evaluation A (Pre-1980)) was “inactive; negative”.

For [Be], the call (Species/Cell Type: Nonhuman, Assay Code: CCG+, Evaluation Type: Evaluation A (Pre-1980)) was “active; positive”.

In the case of CCCCN(N=O)C(CCC)OC(C)=O (stereo not drawn), the mutagenic call [9] is reported as “active; positive”.

With COc1cc2c(c3oc(=O)c4c(c13)CCOC4=O)[C@@H]1C=CO[C@@H]1O2 the mutagenic call (Species/Cell Type: Bacillus subtilis (H17 vs M45), Assay Type: Rec-assay, spot test, DNA effects (bacterial DNA repair), Assay Code: REW+, Evaluation Type: Evaluation A (Pre-1980)) was “active; positive”, the mutagenic call (Species/Cell Type: Human diploid fibroblasts, Assay Type: Unscheduled DNA synthesis (UDS) in vitro, DNA effects, Assay Code: UDH+, Evaluation Type: Evaluation A (Pre-1980)) was “active; positive” and the mutagenic call (Species/Cell Type: Neurospora crassa, Assay Type: Forward gene mutation, Assay Code: NEF+, Evaluation Type: Evaluation A (Pre-1980)) was “active; positive”. For the same compound, the call [12] was “active; positive”, the mutagenic call (Species/Cell Type: Nonhuman, Assay Type: Sister-chromatid exchange (SCE) in vitro, Assay Code: SC2+D*, Activation: With metabolic activation, Dose Response: With dose response, Evaluation Type: Evaluation B (Post-1980)) was “active; positive” and the mutagenic call (Species/Cell Type: Rat primary hepatocytes, Assay Type: Unscheduled DNA synthesis (UDS) in vitro, DNA effects, Assay Code: UDP+, Evaluation Type: Evaluation A (Pre-1980)) was “active; positive”. For the same compound, the mutagenic call (Species/Cell Type: Saccharomyces cerevisiae, Assay Type: Mitotic recombination or gene conversion, Assay Code: YEC-, Evaluation Type: Evaluation A (Pre-1980)) was “inactive; negative” and the mutagenic call [13] was “active; positive”.

O=NN1CCC(=O)CC1 was tested, and the mutagenic call [5] was “no conclusion” and the mutagenic call [13] was “active; positive”.

S=C(S)NCCNC(=S)S was tested, and the mutagenic call [14] was “active; positive”.

With Cl/C=C\CCl the mutagenic call [9] was “active; positive”.

Cc1c2ccccc2c(C)c2c1cc(F)c1ccccc12 was tested, and the mutagenic call [15] was “inactive; negative”.

CC(C)NCC(O)COc1ccc(CC(N)=O)cc1 (stereo not drawn) was tested, and the mutagenic call (Species/Cell Type: Mammalian polychromatic erythrocytes, Assay Type: Micronucleus test, chromosome aberrations, Assay Code: MNTT, Evaluation Type: Evaluation B (Post-1980)) was “no conclusion”.

With CCN(CCCl)CCCNc1c2ccccc2nc2c1ccc1ccccc12 the mutagenic call (Species/Cell Type: Chinese hamster ovary (CHO) cells, Assay Type: Forward gene mutation at the HPRT locus, Assay Code: CHO+D, Dose Response: With dose response, Evaluation Type: Evaluation A (Pre-1980)) was “active; positive”.

With CO[C@H](C)[C@](O)(C(=O)OCC1=CCN2CC[C@H](O)[C@@H]12)C(C)C the mutagenic call [14] was “active; positive”, the mutagenic call (Species/Cell Type: Aspergillus nidulans, Assay Type: Forward gene mutation, Assay Code: ASF+, Evaluation Type: Evaluation A (Pre-1980)) was “active; positive” and the mutagenic call (Species/Cell Type: Drosophila melanogaster, Assay Type: Aneuploidy, sex chromosome gain, chromosome aberrations, Assay Code: DAGT, Evaluation Type: Evaluation A (Pre-1980)) was “no conclusion”. The mutagenic call (Species/Cell Type: Drosophila melanogaster, Assay Type: Aneuploidy, whole sex chromosome loss, chromosome aberrations, Assay Code: DAC+M, Evaluation Type: Evaluation A (Pre-1980)) was “active; positive”, the mutagenic call (Species/Cell Type: Drosophila melanogaster, Assay Type: Sex-linked recessive lethal gene mutation, Assay Code: SRL+, Evaluation Type: Evaluation A (Pre-1980)) was “active; positive” and the mutagenic call [6] was “no conclusion”. For the same compound, the mutagenic call [8] was “active; positive” and the mutagenic call [3] was “active; positive”.

In the case of O[C@H]1C=Cc2cc3c(ccc4ccccc43)cc2[C@@H]1O, the mutagenic call [15] is reported as “inactive; negative”, the call [11] is reported as “no conclusion” and the mutagenic call [3] is reported as “active; positive”. The mutagenic call [4] was “no conclusion”.

With C1=CC2OC2c2cc3ccc4cccc5ccc(c21)c3c45 (stereo not drawn) the mutagenic call [10] was “inactive; negative”, the call [12] was “active; positive” and the mutagenic call [3] was “active; positive”. The mutagenic call [9] was “active; positive”.

For [2H]O[2H], the mutagenic call [6] was “no conclusion”.
